Molecular target: Neuraminidase (Influenza A virus (A/Puerto Rico/8/1934(H1N1)), UniProt P03468)
Sequence (P03468 whole entry): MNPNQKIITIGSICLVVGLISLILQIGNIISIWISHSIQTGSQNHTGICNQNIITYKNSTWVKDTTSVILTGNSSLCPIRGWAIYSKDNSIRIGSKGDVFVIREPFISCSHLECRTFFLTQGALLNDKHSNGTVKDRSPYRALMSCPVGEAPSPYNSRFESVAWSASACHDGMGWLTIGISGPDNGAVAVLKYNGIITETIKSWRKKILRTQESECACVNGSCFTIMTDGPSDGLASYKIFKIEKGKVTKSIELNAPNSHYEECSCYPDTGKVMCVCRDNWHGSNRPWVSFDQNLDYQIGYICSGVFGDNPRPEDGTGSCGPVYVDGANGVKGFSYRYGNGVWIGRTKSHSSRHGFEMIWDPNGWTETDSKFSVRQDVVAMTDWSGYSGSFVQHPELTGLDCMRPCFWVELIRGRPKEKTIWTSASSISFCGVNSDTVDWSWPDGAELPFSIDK

**Q.** `CC(=O)N[C@H]1[C@H]([C@H](O)[C@H](O)CO)O[C@](O)(C(=O)O)C[C@@H]1O` was tested. Which IC50 did it give?
**A.** The IC50 was 1000 µM.

Reference: ChEMBL document CHEMBL1131489, “Dihydropyrancarboxamides related to zanamivir: a new series of inhibitors of influenza virus sialidases. 2. Crystallographic and molecular modeling study of complexes of 4-amino-4H-pyran-6-carboxamides and sialidase from influenza virus types A and B” (J Med Chem, 1998)
